Reference: ChEMBL document CHEMBL1201862, “PubChem BioAssay data set” (2004)
Activity calls are given as the source filed them.

Legend:
H4 = experiment: Luminescence Cell-Based Dose Response HTS to Identify Activators of 5'UTR Stem-Loop Driven Prion Protein mRNA Translation in H4 Neuroglioblastoma Cells. [Related pubchem assays: 1829 (Project Summary), 1814 (Primary HTS)]; type: functional; settings: Homo sapiens
[1] = Luminescence Cell-Based Dose Response to Identify Activators of Luciferase Translation or Activity in H4-C Neuroglioblastoma Cells. [Related pubchem assays: 1829 (Project Summary), 1814 (Primary HTS)]; type: functional
[2] = Luminescence Cell-Based Dose Response HTS to Identify Activators of Luciferase Translation or Activity in H4 […] Cells. [Related pubchem assays: 1829 (Project Summary), 1814 (Primary HTS)]; type: functional
[3] = Luminescence Cell-Based Dose Response to Identify Activators of 5'UTR Stem-Loop Driven Prion Protein mRNA Translation in H4-C Neuroglioblastoma Cells. [Related pubchem assays: 1829 (Project Summary), 1814 (Primary HTS)]; type: functional
[4] = Luminescence Cell-Based Dose Confirmation to Identify Activators of 5'UTR Stem-Loop Driven Alpha-Synuclein mRNA Translation in H4 Neuroglioblastoma Cells. [Related pubchem assays: 1829 (Project Summary), 1814 (Primary HTS)]; type: functional
[5] = biological target: T1, DNA repair protein RAD52 homolog (Homo sapiens, UniProt P43351); type: functional, biochemical
T1 sequence (P43351 whole entry): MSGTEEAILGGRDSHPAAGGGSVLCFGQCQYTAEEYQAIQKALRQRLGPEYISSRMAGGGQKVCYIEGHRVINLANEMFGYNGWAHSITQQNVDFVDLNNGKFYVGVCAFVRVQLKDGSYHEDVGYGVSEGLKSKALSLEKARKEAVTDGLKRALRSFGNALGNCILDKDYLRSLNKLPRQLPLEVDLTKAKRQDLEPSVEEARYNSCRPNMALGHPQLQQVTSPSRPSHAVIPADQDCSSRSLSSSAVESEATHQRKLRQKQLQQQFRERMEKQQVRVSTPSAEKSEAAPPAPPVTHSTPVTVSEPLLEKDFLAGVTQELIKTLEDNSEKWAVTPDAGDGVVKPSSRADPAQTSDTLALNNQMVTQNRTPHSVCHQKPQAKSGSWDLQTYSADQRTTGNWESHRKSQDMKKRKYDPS

[6] = biological target: T2, High affinity choline transporter 1 (Homo sapiens, UniProt Q9GZV3); experiment: human choline transporter blockers, potency – cell-based, 5-point CRC, membrane potential dye, dose response (AID 504840); type: functional
T2 sequence (Q9GZV3 whole entry): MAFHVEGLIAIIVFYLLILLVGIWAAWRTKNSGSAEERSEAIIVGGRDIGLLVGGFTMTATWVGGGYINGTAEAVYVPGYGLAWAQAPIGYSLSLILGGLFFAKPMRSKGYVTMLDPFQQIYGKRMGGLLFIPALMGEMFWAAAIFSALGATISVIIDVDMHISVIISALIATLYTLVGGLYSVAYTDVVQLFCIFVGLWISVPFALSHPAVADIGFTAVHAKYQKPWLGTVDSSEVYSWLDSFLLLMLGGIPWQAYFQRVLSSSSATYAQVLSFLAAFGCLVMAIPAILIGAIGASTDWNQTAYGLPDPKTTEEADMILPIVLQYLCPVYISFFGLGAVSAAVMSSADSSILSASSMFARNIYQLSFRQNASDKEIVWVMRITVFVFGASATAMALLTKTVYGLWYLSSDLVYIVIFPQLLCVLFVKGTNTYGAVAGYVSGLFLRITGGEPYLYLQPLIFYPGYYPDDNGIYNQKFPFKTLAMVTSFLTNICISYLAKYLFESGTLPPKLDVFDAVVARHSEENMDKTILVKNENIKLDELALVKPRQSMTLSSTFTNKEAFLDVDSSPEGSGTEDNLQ

Nonstructural protein 1 = Nonstructural protein 1 (Influenza A virus, UniProt Q194T2); type: functional, Influenza A virus (A/California/07/2009(H1N1))
Sequence of Nonstructural protein 1 (Q194T2 whole entry): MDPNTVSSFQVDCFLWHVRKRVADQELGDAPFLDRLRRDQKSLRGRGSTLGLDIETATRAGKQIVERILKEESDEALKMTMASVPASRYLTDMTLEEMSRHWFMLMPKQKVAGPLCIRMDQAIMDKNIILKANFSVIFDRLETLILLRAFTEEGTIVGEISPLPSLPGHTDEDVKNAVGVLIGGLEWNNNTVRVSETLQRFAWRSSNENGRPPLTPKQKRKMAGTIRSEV

[7] = Trypanosoma cruzi growth suppression in host cells – NIH3T3 host cells, beta-gal luminescence, confirmation (AID 2044); type: functional, cell-based;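 also: intracellular parasites grown in NIH/3T3 mouse fibroblasts as host cells; luminescent beta-galactosidase reporter signal from transgenic T. cruzi replicating inside host cells; inhibitors lower the luminescence signal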
[8] = NIH3T3 cell viability loss – ATP luminescence, mouse fibroblasts, counter-screen, dose response (AID 2010); type: functional, cell-based;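 also: cells exposed to compound for about 90 hours before reading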
[9] = biological target: T3, Long-chain-fatty-acid--AMP ligase FadD28 (Mycobacterium tuberculosis, UniProt P9WQ59); experiment: Fluorescence polarization aasay to screen for inhibitors that compete for the binding of FadD28 to a bisubstrate Measured in Biochemical System Using Plate Reader - 2147-01_Inhibitor_Dose_CherryPick_Activity.; type: functional, Mycobacterium tuberculosis H37Rv
T3 sequence (P9WQ59 whole entry): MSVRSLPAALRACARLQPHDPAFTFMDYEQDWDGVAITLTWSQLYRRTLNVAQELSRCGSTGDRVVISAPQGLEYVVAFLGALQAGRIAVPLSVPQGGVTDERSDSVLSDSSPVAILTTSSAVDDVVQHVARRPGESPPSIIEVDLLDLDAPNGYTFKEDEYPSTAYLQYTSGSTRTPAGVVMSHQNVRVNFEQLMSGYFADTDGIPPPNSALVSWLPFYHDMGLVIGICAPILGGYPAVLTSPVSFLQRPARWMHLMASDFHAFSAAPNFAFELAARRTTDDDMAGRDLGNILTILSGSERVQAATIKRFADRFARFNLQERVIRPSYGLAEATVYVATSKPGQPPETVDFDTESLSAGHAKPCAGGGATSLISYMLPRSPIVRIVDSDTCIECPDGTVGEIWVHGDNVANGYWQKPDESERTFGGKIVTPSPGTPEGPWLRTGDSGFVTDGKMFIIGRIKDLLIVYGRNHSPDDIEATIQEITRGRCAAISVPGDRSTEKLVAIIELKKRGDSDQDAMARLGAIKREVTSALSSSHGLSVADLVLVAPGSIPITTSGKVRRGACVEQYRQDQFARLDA

[10] = biological target: T4, Heat shock factor protein 1 (Mus musculus, UniProt P38532); experiment: decrease of HSF1-responsive luciferase luminescence – cell-based, NIH3T3, dose retest, confirmation (AID 2382); type: functional;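 also: NIH3T3 fibroblasts with HSF1-driven luciferase reporter stressed by proteasome inhibitor MG132; luminescence from HSF1-driven luciferase expression after 8 hours of MG132 stress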
T4 sequence (P38532 whole entry): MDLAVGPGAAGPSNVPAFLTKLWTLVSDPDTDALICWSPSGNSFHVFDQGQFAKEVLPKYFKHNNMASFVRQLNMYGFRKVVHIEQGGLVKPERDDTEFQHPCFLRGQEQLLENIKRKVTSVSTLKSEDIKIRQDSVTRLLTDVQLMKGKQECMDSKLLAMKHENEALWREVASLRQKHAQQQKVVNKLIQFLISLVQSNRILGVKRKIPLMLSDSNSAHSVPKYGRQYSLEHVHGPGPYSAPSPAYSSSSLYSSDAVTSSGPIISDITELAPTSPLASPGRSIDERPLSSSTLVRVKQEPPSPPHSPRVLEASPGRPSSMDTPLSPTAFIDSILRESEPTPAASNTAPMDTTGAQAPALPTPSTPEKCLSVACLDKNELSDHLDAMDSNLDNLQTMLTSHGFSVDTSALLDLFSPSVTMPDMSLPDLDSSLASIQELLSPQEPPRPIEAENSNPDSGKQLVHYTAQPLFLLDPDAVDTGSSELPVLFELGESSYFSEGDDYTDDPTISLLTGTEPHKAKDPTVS

Large T antigen = Large T antigen (Simian virus 40, UniProt P03070); type: functional, Betapolyomavirus macacae;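 also: Confirmatory-stage PubChem screen for compounds that inhibit SV40 T antigen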
Sequence of Large T antigen (P03070 whole entry): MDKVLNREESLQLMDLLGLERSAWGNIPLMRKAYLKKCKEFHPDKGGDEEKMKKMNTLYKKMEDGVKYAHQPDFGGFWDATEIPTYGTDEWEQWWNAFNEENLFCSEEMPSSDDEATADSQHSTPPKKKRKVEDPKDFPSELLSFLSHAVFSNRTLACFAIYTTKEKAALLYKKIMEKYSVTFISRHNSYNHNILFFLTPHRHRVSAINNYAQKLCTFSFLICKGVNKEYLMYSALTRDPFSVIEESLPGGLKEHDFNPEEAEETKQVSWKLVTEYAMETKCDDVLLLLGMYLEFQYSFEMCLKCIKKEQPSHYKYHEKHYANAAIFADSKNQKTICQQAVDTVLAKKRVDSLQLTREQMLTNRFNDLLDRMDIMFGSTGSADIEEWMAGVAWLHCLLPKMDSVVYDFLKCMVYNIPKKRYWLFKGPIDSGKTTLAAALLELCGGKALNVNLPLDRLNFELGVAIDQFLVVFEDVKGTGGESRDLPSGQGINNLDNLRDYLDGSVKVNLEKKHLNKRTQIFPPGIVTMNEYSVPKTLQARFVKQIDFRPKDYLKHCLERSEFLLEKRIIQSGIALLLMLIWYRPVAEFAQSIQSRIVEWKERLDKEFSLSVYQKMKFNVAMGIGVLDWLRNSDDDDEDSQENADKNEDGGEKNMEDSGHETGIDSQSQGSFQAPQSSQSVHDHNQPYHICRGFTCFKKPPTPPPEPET

[11] = biological target: Induced myeloid leukemia cell differentiation protein Mcl-1 (Homo sapiens, UniProt Q07820); type: functional
Sequence of Induced myeloid leukemia cell differentiation protein Mcl-1 (Q07820 whole entry): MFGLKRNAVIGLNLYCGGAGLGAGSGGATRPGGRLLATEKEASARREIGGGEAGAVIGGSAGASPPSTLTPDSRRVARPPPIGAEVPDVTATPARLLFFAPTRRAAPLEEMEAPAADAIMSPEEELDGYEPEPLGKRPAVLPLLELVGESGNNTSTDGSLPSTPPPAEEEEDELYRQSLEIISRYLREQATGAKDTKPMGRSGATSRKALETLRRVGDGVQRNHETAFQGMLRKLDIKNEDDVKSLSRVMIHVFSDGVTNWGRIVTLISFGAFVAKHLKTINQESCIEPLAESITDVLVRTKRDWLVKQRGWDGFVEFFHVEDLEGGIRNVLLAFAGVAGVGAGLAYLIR

[12] = viability of PTEN-deleted HCT116 cells – cell-based, HCT116 PTEN knockout, dose response (AID 1047); type: functional;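 also: HCT116 colon tumor cells with PTEN knocked out; cells exposed to compound for 60 hours before readout; potency for loss of cell viability measured by luminescence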
[13] = blockers of HIV-1 envelope-mediated cell-cell fusion – cherry-pick, dose response (AID 652057); type: functional, cell-based
[14] = blockers of HIV-1 ZM109 envelope-driven cell-cell fusion – HeLa effector, CEM target cells, luciferase, cherry-pick, dose response (AID 652058); type: functional, cell-based;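 also: luciferase signal from HIV-1 Env mediated cell-cell fusion of effector and target cells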
[15] = off-target signal loss in HeLa-CEM21 co-culture – HeLa F-luc CTL cells, cherry-picked, counter-screen for HIV-1 Env fusion inhibitor project, dose response (AID 652040); type: functional, cell-based;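 also: potency for signal decrease marking cytotoxic or nonspecific inhibition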
[16] = viability of HCT116 lacking mutant beta-catenin – cell-based, human colon tumor, dose response (AID 1045); type: functional;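 also: HCT116 colon tumor cells with beta catenin knocked out; cells exposed to compound for 60 hours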
[17] = HIV-1 AD8 envelope cell-cell fusion blockers – cherry-pick, dose response (AID 652062); type: functional, cell-based;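 also: luciferase signal from cell-cell fusion driven by HIV-1 clade B AD8 Env; potency is for inhibitors of fusion seen as a drop in luminescence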

COc1ccc(N=C(S)Nc2cc(C)ccn2)c(OC)c1
EC50 (H4): > 120 µM (not active)
EC50 [1]: > 12 µM (not active)
EC50 [2]: < 0.1 µM (inconclusive)
EC50 [3]: 0.393 µM (active)
EC50 [4]: 0.256 µM (active)

O=C(/C=C/c1cn(-c2ccccc2)nc1-c1ccc2c(c1)OCCO2)NCCCN1CCOCC1
AC50 [5]: 16.1 µM (active)
IC50 [6]: 20 µM (active)

CCOc1cccc(=NC2CCCCC2)c2c(C)[nH]c(C)c12
AC50 [5]: 3.49 µM (active)
IC50 (Nonstructural protein 1): 68.8 µM (active)

COc1ccc(N2CCc3c(C)nc4c(OC)cc(OC)cc4c32)cc1
EC50 [7]: 0.97 µM (active)
AC50 [5]: 3.96 µM (active)
EC50 [8]: 36.5 µM (active)

CCS(=O)(=O)c1nc(S(=O)(=O)c2ccc(C)cc2)c(N2CC(C)OC(C)C2)s1 (configuration not stated)
EC50 (H4): > 120 µM (not active)
EC50 [1]: > 12 µM (not active)
EC50 [2]: < 0.1 µM (active)
EC50 [3]: > 12 µM (not active)
EC50 [4]: 0.81 µM (active)

COc1cccc(NC(=O)Cn2c(=O)oc3cc(S(=O)(=O)N4CCCC4)ccc32)c1
AC50 [9]: 44.5 µM (active)
EC50 [10]: > 195 µM (not active)

COc1ccc(C(=O)Cn2nnc(-c3ccccc3F)n2)cc1
AC50 [9]: > 100 µM (inactive)

O=C(NCc1ccccc1)c1cnc2cc3c(cc2c1O)OCCO3
EC50 (H4): 0.282 µM (active)
EC50 [1]: 0.334 µM (active)
EC50 [2]: < 0.1 µM (active)
EC50 [3]: 0.421 µM (active)
EC50 [4]: 0.2 µM (active)

CN(C)c1ccc(Nc2nc(N)c([N+](=O)[O-])c(N3CCOCC3)n2)cc1
IC50 (Large T antigen): 3.84 µM (active)
IC50 [11]: 0.8 µM (active)

Nc1c(S(=O)(=O)c2cccs2)c2nc3ccccc3nc2n1CCc1ccccc1
EC50 [12]: 27 µM (active)
AC50 [13]: 9.23 µM (active)
AC50 [14]: 9.26 µM (active)
AC50 [15]: 12.7 µM (active)
EC50 [16]: 30 µM (active)

COc1ccc(CN2CCC(C)(Oc3ccc4c(c3)OCO4)C2)c2ccccc12 (configuration not stated)
AC50 [13]: 6.46 µM (active)
AC50 [14]: 10.1 µM (active)
AC50 [15]: 12.2 µM (active)
AC50 [17]: 10.1 µM (active)

C[C@H]1CN([C@@H](C)CO)C(=O)Cc2cc(NC(=O)Cc3cn(C)c4ccccc34)ccc2O[C@H]1CN(C)S(=O)(=O)c1ccccc1
AC50 [13]: 12.7 µM (active)
AC50 [14]: 9.19 µM (active)
AC50 [17]: 23.5 µM (active)

CCc1nc2ccc(C(=O)NCCN3CCNC3=O)cn2c1N(CC)Cc1cccc(Br)c1
AC50 [13]: 1.18 µM (active)
AC50 [14]: 1.74 µM (active)
AC50 [15]: 1.85 µM (active)
AC50 [17]: 3.08 µM (active)

CN(C[C@@H](CC1CCCCC1)N(C[C@H](Cc1ccccc1)N(CCc1ccccc1)N=O)N=O)N=O
AC50 [13]: 5.14 µM (active)
AC50 [14]: 8.38 µM (active)
AC50 [15]: 6.56 µM (active)
AC50 [17]: 42.9 µM (active)

O=C(N/N=C/c1ccc2c(c1)OCO2)c1ccc(Br)o1
EC50 (H4): 18.6 µM (inconclusive)
EC50 [1]: 0.433 µM (active)
EC50 [2]: < 0.1 µM (inconclusive)
EC50 [3]: 0.855 µM (active)
EC50 [4]: 0.371 µM (active)
